Measurements from PubChem BioAssay (NCI).
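Cultured in 96-well plates, cells were exposed to test compound for 48 hours across five concentrations. TGI denotes the concentration required for complete inhibition of growth.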

Assays:
Experiment in all cases: DTP human tumour cell line panel, 48 h
SK-MEL-28 melanoma = system: SK-MEL-28 melanoma
KM12 colon = system: KM12 colon
T-47D breast = system: T-47D breast
K-562 leukemia = system: K-562 leukemia
ACHN renal = system: ACHN renal
SK-MEL-5 melanoma = system: SK-MEL-5 melanoma
IGROV1 ovarian = system: IGROV1 ovarian
HL-60(TB) leukemia = system: HL-60(TB) leukemia
LOX IMVI melanoma = system: LOX IMVI melanoma
SF-539 CNS = system: SF-539 CNS
OVCAR-8 ovarian = system: OVCAR-8 ovarian
HCT-15 colon = system: HCT-15 colon
OVCAR-4 ovarian = system: OVCAR-4 ovarian
OVCAR-5 ovarian = system: OVCAR-5 ovarian
HOP-62 NSCLC = system: HOP-62 NSCLC
NCI-H522 lung = system: NCI-H522 lung
UACC-257 melanoma = system: UACC-257 melanoma
A549 NSCLC = system: A549 NSCLC
UO-31 renal = system: UO-31 renal
HS 578T breast = system: HS 578T breast
SNB-19 CNS = system: SNB-19 CNS
RXF 393 renal = system: RXF 393 renal
NCI-H226 lung = system: NCI-H226 lung
NCI/ADR-RES ovarian = system: NCI/ADR-RES ovarian
MALME-3M melanoma = system: MALME-3M melanoma
SF-268 CNS = system: SF-268 CNS
MOLT-4 leukemia = system: MOLT-4 leukemia
M14 melanoma = system: M14 melanoma
SW-620 colon = system: SW-620 colon
A498 renal = system: A498 renal
MDA-MB-231 breast = system: MDA-MB-231 breast
786-0 renal = system: 786-0 renal
NCI-H23 lung = system: NCI-H23 lung
SK-MEL-2 melanoma = system: SK-MEL-2 melanoma
MDA-N = system: MDA-N
HCC-2998 colon = system: HCC-2998 colon
HOP-92 NSCLC = system: HOP-92 NSCLC
SN12C renal = system: SN12C renal
MDA-MB-435 = system: MDA-MB-435
MCF7 breast = system: MCF7 breast
DU-145 prostate = system: DU-145 prostate
SNB-75 CNS = system: SNB-75 CNS
U251 CNS = system: U251 CNS
SF-295 CNS = system: SF-295 CNS
COLO 205 colon = system: COLO 205 colon
PC-3 prostate = system: PC-3 prostate
EKVX NSCLC = system: EKVX NSCLC
UACC-62 melanoma = system: UACC-62 melanoma
HT29 colon = system: HT29 colon
CCRF-CEM leukemia = system: CCRF-CEM leukemia
NCI-H460 lung = system: NCI-H460 lung
HCT-116 colon = system: HCT-116 colon
TK-10 renal = system: TK-10 renal
BT-549 breast = system: BT-549 breast
OVCAR-3 ovarian = system: OVCAR-3 ovarian
CAKI-1 renal = system: CAKI-1 renal
SK-OV-3 ovarian = system: SK-OV-3 ovarian
RPMI-8226 leukemia = system: RPMI-8226 leukemia

Measured: TGI

CC(=O)N1c2ccccc2Sc2cc(C(O)(C(F)(F)F)C(F)(F)F)ccc21
not listed: RPMI-8226 leukemia
> 10 µM: all other assays above

COC(=O)[C@H](Cc1ccccc1)NC(=O)N1CCN(C(=O)N[C@@H](Cc2ccccc2)C(=O)OC)CCN(C(=O)N[C@@H](Cc2ccccc2)C(=O)OC)CC1
not listed: SF-539 CNS | MDA-MB-231 breast
> 100 µM: all other assays above

Cc1ccc(S(=O)(=O)N2CCCCN(S(=O)(=O)c3ccc(C)cc3)Cc3ccccc3OCCOCCOc3c4cccc3Cc3cccc5c3OCCOCCOc3ccccc3CN(S(=O)(=O)c3ccc(C)cc3)CCCN(S(=O)(=O)c3ccc(C)cc3)Cc3ccccc3OCCOCCOc3c(cccc3C4)Cc3cccc(c3OCCOCCOc3ccccc3C2)C5)cc1
not listed: SK-MEL-28 melanoma | HL-60(TB) leukemia
> 100 µM: all other assays above
